# Test results: US9108983B2, “Pyrrole compounds, a process for their preparation and pharmaceutical compositions containing them” (LES LABORATOIRES SERVIER, priority 2013, dated 2015)
# Counter-ions that a name gives are not always drawn.
# How the values were obtained:
# [1] = system: RS4;11 leukaemia tumour line; experiment: In vitro cytotoxicity (Microculture Tetrazolium Assay); format: cell-based; conditions: Homo sapiens, RS4-11, 48 h, RS4;11 cells, exposed for 48 hours, cell viability; read-out: IC50 (nM) MTT RS4;11
# Method: The cytotoxicity studies were carried out on the RS4;11 leukaemia tumour line.
# The cells are distributed onto microplates and exposed to the test compounds for 48 hours.
# The cell viability is then quantified by a colorimetric assay, the Microculture Tetrazolium Assay (Cancer Res., 1987, 47, 939-942).
# Bcl-2 protein = Bcl-2 protein (histag-Bcl-2, UniProtKB P10415) (Homo sapiens (Human), UniProt P10415); experiment: Inhibition of Bcl-2 by the fluorescence polarisation technique; format: binding; conditions: incubation for 2 hours, read-out: IC50 (nM) Bcl-2 FP
# Procedure, shortened: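 In pH 7.4 buffer (Hepes 10 mM, NaCl 150 mM, Tween20 0.05%), test compounds at increasing concentrations competed with a fluorescein peptide (1.00×10^−8 M final) for histag-Bcl-2 (2.50×10^−8 M final). Readout was fluorescence polarisation after a 2 h incubation.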
# Bcl-2 protein, sequence (P10415 whole entry): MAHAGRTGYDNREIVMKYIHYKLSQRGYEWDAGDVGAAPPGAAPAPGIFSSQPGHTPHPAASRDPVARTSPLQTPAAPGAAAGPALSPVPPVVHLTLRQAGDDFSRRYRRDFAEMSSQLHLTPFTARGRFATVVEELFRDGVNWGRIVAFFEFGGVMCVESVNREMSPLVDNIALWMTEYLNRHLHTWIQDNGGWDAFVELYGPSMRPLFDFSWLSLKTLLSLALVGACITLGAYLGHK
Compound,IC50 (Bcl-2 protein) [nM],IC50 [1] [nM]
"COCCN(C)CCn1c(-c2cc3c(cc2C(=O)N2Cc4ccccc4C[C@H]2C)OCO3)cc(C(=O)N(c2ccc(O)cc2)c2cnn(C)c2)c1C [Example 99, N-(4-Hydroxyphenyl)-1-{2-[(2-methoxyethyl)(methyl)amino]ethyl}-2-methyl-5-(6-{[(3R)-3-methyl-3,4-dihydroisoquinolin-2(1H)-yl]carbonyl}-1,3-benzodioxol-5-yl)-N-(1-methyl-1H-pyrazol-4-yl)-1H-pyrrole-3-carboxamide hydrochloride]",6.4,108
"COc1cc(C(=O)N2Cc3ccccc3C[C@H]2CN2CCOCC2)c(-c2[nH]c(C)c(C(=O)N(c3ccc(O)cc3)c3cnn(C)c3)c2C)cc1F [Example 100, 5-(5-Fluoro-4-methoxy-2-{[(3S)-3-(morpholin-4-ylmethyl)-3,4-dihydroisoquinolin-2(1H)-yl]carbonyl}phenyl)-N-(4-hydroxyphenyl)-4,2-dimethyl-N-(1-methyl-1H-pyrazol-4-yl)-1H-pyrrole-3-carboxamide hydrochloride]",22.9,193
"COc1cc(-c2cc(C(=O)N(c3ccc(O)cc3)c3cnn(C)c3)c(C)n2C)c(C(=O)N2Cc3ccccc3C[C@H]2CN2CCOCC2)cc1F [Example 101, 5-(4-Fluoro-5-methoxy-2-{[(3S)-3-(morpholin-4-ylmethyl)-3,4-dihydroisoquinolin-2(1H)-yl]carbonyl}phenyl)-N-(4-hydroxyphenyl)-1,2-dimethyl-N-(1-methyl-1H-pyrazol-4-yl)-1H-pyrrole-3-carboxamide hydrochloride]",21.1,743
"Cc1c(C(=O)N(c2ccc(O)cc2)c2cnc3c(ccn3C)c2)cc(-c2cc(Cl)ccc2C(=O)N2Cc3ccccc3C[C@H]2CN2CCN(C)CC2)n1C [Example 102, 5-(5-Chloro-2-{[(3S)-3-[(4-methylpiperazin-1-yl)methyl]-3,4-dihydroisoquinolin-2(1H)-yl]carbonyl}phenyl)-N-(4-hydroxyphenyl)-1,2-dimethyl-N-(1-methyl-1H-pyrrolo[2,3-b]pyridin-5-yl)-1H-pyrrole-3-carboxamide trihydrochloride]",2,6.51
"Cc1c(C(=O)N(c2ccc(O)cc2)c2cc(C#N)n(C)c2)cc(-c2cc(Cl)ccc2C(=O)N2Cc3ccccc3C[C@H]2CN2CCOCC2)n1C [Example 108, 5-(5-Chloro-2-{[(3S)-3-(morpholin-4-ylmethyl)-3,4-dihydroisoquinolin-2(1H)-yl]carbonyl}phenyl)-N-(5-cyano-1-methyl-1H-pyrrol-3-yl)-N-(4-hydroxyphenyl)-1,2-dimethyl-1H-pyrrole-3-carboxamide hydrochloride]",3.9,15.4
"Cc1c(C(=O)N(c2ccc(O)cc2)c2cccc(C#N)n2)cc(-c2cc(Cl)ccc2C(=O)N2Cc3ccccc3C[C@H]2CN2CCOCC2)n1C [Example 109, 5-(5-Chloro-2-{[(3S)-3-(morpholin-4-ylmethyl)-3,4-dihydroisoquinolin-2(1H)-yl]carbonyl}phenyl)-N-(6-cyanopyridin-2-yl)-N-(4-hydroxyphenyl)-1,2-dimethyl-1H-pyrrole-3-carboxamide hydrochloride]",91.5,930
"Cc1c(C(=O)N(c2ccc(O)cc2)c2cc(C#N)ccn2)cc(-c2cc(Cl)ccc2C(=O)N2Cc3ccccc3C[C@H]2CN2CCOCC2)n1C [Example 110, 5-(5-Chloro-2-{[(3S)-3-(morpholin-4-ylmethyl)-3,4-dihydroisoquinolin-2(1H)-yl]carbonyl}phenyl)-N-(4-cyanopyridin-2-yl)-N-(4-hydroxyphenyl)-1,2-dimethyl-1H-pyrrole-3-carboxamide hydrochloride]",8.5,39.5
"Cc1c(C(=O)N(c2ccc(O)cc2)c2cnn(C)c2)cc(-c2cc(Cl)ccc2C(=O)N2Cc3ccccc3C[C@H]2CN2CCN3CCOC[C@@H]3C2)n1C [Example 115, 5-(5-Chloro-2-{[(3S)-3-[(9aS)-hexahydropyrazino[2,1-c][1,4]oxazin-8(1H)-ylmethyl]-3,4-dihydroisoquinolin-2(1H)-yl]carbonyl}phenyl)-N-(4-hydroxyphenyl)-1,2-dimethyl-N-(1-methyl-1H-pyrazol-4-yl)-1H-pyrrole-3-carboxamide dihydrochloride]",3.6,18.3
"Cc1c(C(=O)N(c2ccc(O)cc2)c2cnn(C)c2)cc(-c2cc(Cl)ccc2C(=O)N2Cc3ccccc3C[C@H]2CN2CCN3CCOC[C@H]3C2)n1C [Example 116, 5-(5-Chloro-2-{[(3S)-3-[(9aR)-hexahydropyrazino[2,1-c][1,4]oxazin-8(1H)-ylmethyl]-3,4-dihydroisoquinolin-2(1H)-yl]carbonyl}phenyl)-N-(4-hydroxyphenyl)-1,2-dimethyl-N-(1-methyl-1H-pyrazol-4-yl)-1H-pyrrole-3-carboxamide dihydrochloride]",3.4,47.8
"Cc1c(C(=O)N(c2ccc(O)cc2)c2cnn(C3CC3)c2)cc(-c2cc(Cl)ccc2C(=O)N2Cc3ccccc3C[C@H]2CN2CCOCC2)n1C [Example 122, 5-(5-Chloro-2-{[(3S)-3-(morpholin-4-ylmethyl)-3,4-dihydroisoquinolin-2(1H)-yl]carbonyl}phenyl)-N-(1-cyclopropyl-1H-pyrazol-4-yl)-N-(4-hydroxyphenyl)-1,2-dimethyl-1H-pyrrole-3-carboxamide]",3.4,82.4
"Cc1c(C(=O)N(c2ccc(O)cc2)c2cnn(C3COC3)c2)cc(-c2cc(Cl)ccc2C(=O)N2Cc3ccccc3C[C@H]2CN2CCOCC2)n1C [Example 126, 5-(5-Chloro-2-{[(3S)-3-(morpholin-4-ylmethyl)-3,4-dihydroisoquinolin-2(1H)-yl]carbonyl}phenyl)-N-(4-hydroxyphenyl)-1,2-dimethyl-N-[1-(oxetan-3-yl) 1H-pyrazol-4-yl]-1H-pyrrole-3-carboxamide]",4.2,49.2
"Cc1c(C(=O)N(c2ccc(O)cc2)c2cnn(C3CCOC3)c2)cc(-c2cc(Cl)ccc2C(=O)N2Cc3ccccc3C[C@H]2CN2CCOCC2)n1C (stereo partly drawn) [Example 127, 5-(5-Chloro-2-{[(3S)-3-(morpholin-4-ylmethyl)-3,4-dihydroisoquinolin-2(1H)-yl]carbonyl}phenyl)-N-(4-hydroxyphenyl)-1,2-dimethyl-N-[1-(tetrahydrofuran-3-yl)-1H-pyrazol-4-yl]-1H-pyrrole-3-carboxamide hydrochloride]",5.3,111

# The next lines start with results.
IC50 (Bcl-2 protein) [nM],Compound,IC50 [1] [nM]
18.1,"Cc1c(C(=O)N(c2ccccc2)c2cnc3c(c2)CCN3C)cc(-c2cc(Cl)ccc2C(=O)N2Cc3ccccc3C[C@H]2CN2CCOCC2)n1C [Example 129, 5-(5-Chloro-2-{[(3S)-3-(morpholin-4-ylmethyl)-3,4-dihydroisoquinolin-2(1H)-yl]carbonyl}phenyl)-1,2-dimethyl-N-(1-methyl-2,3-dihydro-1H-pyrrolo[2,3-b]-pyridin-5-yl)-N-phenyl-1H-pyrrole-3-carboxamide]",275
4.6,"Cc1c(C(=O)N(c2ccc(O)cc2)c2cnn(C)c2)cc(-c2cc(Cl)ccc2C(=O)N2Cc3ccccc3C[C@H]2CN2CC3(CCO3)C2)n1C [Example 207, 5-(5-Chloro-2-{[(3S)-3-(1-oxa-6-azaspiro[3.3]hept-6-ylmethyl)-3,4-dihydroisoquinolin-2(1H)-yl]carbonyl}phenyl)-N-(4-hydroxyphenyl)-1,2-dimethyl-N-(1-methyl-1H-pyrazol-4-yl)-1H-pyrrole-3-carboxamide]",32.2
7.4,"COc1cc(C(=O)N2Cc3ccccc3C[C@H]2CN2CCOCC2)c(-c2cc(C(=O)N(c3ccc(O)cc3)c3cnc4c(ccn4C)c3)c(C)n2C)cc1F [Example 209, 5-(5-Fluoro-4-methoxy-2-{[(3S)-3-(morpholin-4-ylmethyl)-3,4-dihydroisoquinolin-2(1H)-yl]carbonyl}phenyl)-N-(4-hydroxyphenyl)-1,2-dimethyl-N-(1-methyl-1H-pyrrolo[2,3-b]pyridin-5-yl)-1H-pyrrole-3-carboxamide hydrochloride]",25.4
6.3,"Cc1c(C(=O)N(c2ccc(O)cc2)c2cnn(C3CC3)c2)cc(-c2cc(F)ccc2C(=O)N2Cc3ccccc3C[C@H]2CN2CCOCC2)n1C [Example 214, N-(1-Cyclopropyl-1H-pyrazol-4-yl)-5-(5-fluoro-2-{[(3S)-3-(morpholin-4-ylmethyl)-3,4-dihydroisoquinolin-2(1H)-yl]carbonyl}phenyl)-N-(4-hydroxyphenyl)-1,2-dimethyl-1H-pyrrole-3-carboxamide hydrochloride]",236
14.8,"COCCc1c(C(=O)N(c2ccc(O)cc2)c2cnc3c(c2)CCN3C)cc(-c2cc3c(cc2C(=O)N2Cc4ccccc4C[C@H]2CN2CCOCC2)OCO3)n1C [Example 358, N-(4-Hydroxyphenyl)-2-(2-methoxyethyl)-1-methyl-N-(1-methyl-2,3-dihydro-1H-pyrrolo[2,3-b]pyridin-5-yl)-5-(6-{[(3S)-3-(morpholin-4-ylmethyl)-3,4-dihydroisoquinolin-2(1H)-yl]carbonyl}-1,3-benzodioxol-5-yl)-1H-pyrrole-3-carboxamide hydrochloride]",165
9.7,"Cc1c(C(=O)N(c2ccncc2)c2ccc(O)cc2)cc(-c2cc(F)ccc2C(=O)N2Cc3ccccc3C[C@H]2CN2CCOCC2)n1C [Example 384, 5-(5-Fluoro-2-{[(3S)-3-(morpholin-4-ylmethyl)-3,4-dihydroisoquinolin-2(1H)-yl]carbonyl}phenyl)-N-(4-hydroxyphenyl)-1,2-dimethyl-N-(pyridin-4-yl)-1H-pyrrole-3-carboxamide hydrochloride]",216
